# In PubChem BioAssay AID651581 (Sanford-Burnham Center for Chemical Genomics, 2012):
# Calls of active or inactive are those of the source. No rule for the calls is given here.
# Key:
# [1] = biological target: Hypoxia-inducible factor 1-alpha (Homo sapiens) (UniProt Q16665); assay: potency against HIF reporters across cell lines – luminescence, panel, selectivity assay for HIF-2a inhibitor project, dose response (AID 651581); conditions: human cell HIF reporter, HIF-1a
# [2] = biological target: Endothelial PAS domain-containing protein 1 (Homo sapiens) (UniProt Q99814); assay: as above; conditions: human cell HIF reporter
# Sequence of Hypoxia-inducible factor 1-alpha (Homo sapiens) (Q16665 whole entry, looked up, the tested form may be a part): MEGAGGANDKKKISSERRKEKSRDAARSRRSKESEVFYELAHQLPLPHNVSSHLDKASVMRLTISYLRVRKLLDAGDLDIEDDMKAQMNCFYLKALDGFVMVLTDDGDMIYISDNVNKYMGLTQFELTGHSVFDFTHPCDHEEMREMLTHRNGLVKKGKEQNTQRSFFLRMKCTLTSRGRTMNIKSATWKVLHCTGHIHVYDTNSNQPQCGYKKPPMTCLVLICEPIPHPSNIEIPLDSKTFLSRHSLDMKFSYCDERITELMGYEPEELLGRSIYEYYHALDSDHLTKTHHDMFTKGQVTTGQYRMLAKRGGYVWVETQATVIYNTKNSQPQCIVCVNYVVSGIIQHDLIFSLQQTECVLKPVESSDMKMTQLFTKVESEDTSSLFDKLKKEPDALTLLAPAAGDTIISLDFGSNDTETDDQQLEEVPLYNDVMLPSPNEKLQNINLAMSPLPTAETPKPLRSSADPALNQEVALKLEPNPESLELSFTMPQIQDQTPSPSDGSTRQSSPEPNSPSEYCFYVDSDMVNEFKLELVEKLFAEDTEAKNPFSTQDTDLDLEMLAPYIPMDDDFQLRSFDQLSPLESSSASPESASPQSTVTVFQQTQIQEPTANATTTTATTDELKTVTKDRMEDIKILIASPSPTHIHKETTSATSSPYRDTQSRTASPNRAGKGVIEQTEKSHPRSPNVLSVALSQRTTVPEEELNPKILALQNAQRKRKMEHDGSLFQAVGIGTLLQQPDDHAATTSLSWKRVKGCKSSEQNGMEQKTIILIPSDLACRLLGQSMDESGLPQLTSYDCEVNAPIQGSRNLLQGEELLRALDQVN
SMILES,IC50 ([1]; mean of runs),IC50 ([1]; run 1) [µM],IC50 ([1]; run 2) [µM],"IC50 ([2]; HIF-2a PANC, mean of runs)","IC50 ([2]; HIF-2a PANC, run 1) [µM]","IC50 ([2]; HIF-2a PANC, run 2) [µM]","IC50 ([2]; HIF-2a, mean of runs)","IC50 ([2]; HIF-2a, run 1) [µM]","IC50 ([2]; HIF-2a, run 2) [µM]"
Cc1ccc(NC(=S)NNc2ncc(C(F)(F)F)cc2Cl)cc1,27 µM,20.4,33.5,1.29 µM,1.66,0.928,4.58 µM,4.66,4.49
CCC(=O)Nc1cccc(C(=O)c2ccc(C)c(C)c2)c1,–,> 99,38.7,–,> 99,> 99,–,> 99,1.57
CCOC(=O)Cc1csc(NC(=S)NC(=O)c2ccccc2C)n1,inactive,22.8,37.2,–,> 99,49,inactive,15,14.5
O=C1C=C(c2ccccc2)C(=O)N1Nc1ccccc1,82.8 µM,76,89.5,> 99 µM (inactive),> 99,> 99,inactive,11.2,10.6
COC(=O)c1cccc(NC(=O)NC(=O)c2ccccc2Cl)c1,–,> 99,> 99,–,17.6,> 99,7.56 µM,7.45,7.66
Cc1c(CCC(=O)N2CCC[C@H]2C(=O)O)c(=O)oc2cc3oc4c(c3cc12)CCCC4,inactive,0.824,1.53,1.12 µM,1.11,1.12,0.512 µM,0.451,0.574
Cc1cc(C(=O)Nc2cccc(C(=O)O)c2)oc1C,–,41.9,> 99,> 99 µM (inactive),> 99,> 99,6.46 µM,6.81,6.12
O=Nc1c(O)ccc2cc(S(=O)(=O)O)ccc12,–,3.06,> 99,inactive,25.5,51.1,8.77 µM,8.62,8.91
CN(C)c1c([N+](=O)[O-])cc(N2C(=O)C=CC2=O)cc1[N+](=O)[O-],52.2 µM,63.9,40.5,inactive,22.2,41.7,8.6 µM,8.29,8.9
CC(C)(C)c1ccc(-c2noc(CCC(=O)NCC3CCCO3)n2)cc1 (stereo unspecified),–,> 99,> 99,< 3 µM,< 3,< 10,< 10 µM,< 10,< 10
CCOC(=O)C1CCN(C(=O)Nc2ccc3snnc3c2)CC1,–,> 99,> 99,inactive,19.4,56.8,inactive,8.45,14.8
Cc1cc(SC#N)cc(C)c1NC(=O)CCl,inactive,20.2,28.5,–,> 99,93.4,inactive,12.6,7.78
COc1cccc(NC(=O)c2nc(S(C)(=O)=O)ncc2Cl)c1,inactive,14.7,28.2,inactive,32.4,89.6,inactive,12.2,11.3
Cc1nc2cc(-c3ccccc3)nn2c(C)c1CCC(=O)N1CCN(c2ccccc2)CC1,8.15 µM,8.3,7.99,1.59 µM,1.41,1.77,1.05 µM,0.978,1.13
COc1ccc(OCc2cccc(C(=O)Nc3cc(C)on3)c2)cc1,–,> 99,> 99,–,> 99,< 30,< 30 µM (inactive),< 30,< 30
CCOc1ccc(-c2cc(CCCC(=O)Nc3cc(OC)ccc3OC)no2)cc1,inactive,4.99,5.07,0.447 µM,0.529,0.365,1.99 µM,2.32,1.66
O=C(O)c1cccc(-c2nc3ccccc3[nH]2)c1,–,> 99,> 99,> 99 µM (inactive),> 99,> 99,inactive,14.5,15.5
N#CCC(=O)N/N=C\c1cccc(OC/C=C/c2ccccc2)c1,–,> 99,< 30,–,> 99,< 30,–,< 30,8.63
O=C(c1ccccc1)N1CCSc2sccc2C1=O,56.4 µM,57.6,55.1,18.9 µM,28,9.87,6.78 µM,6.98,6.58
CCOC(=O)c1cccc(NC(=O)Nc2ccc(OCC)cc2)c1,–,> 99,> 99,–,< 30,32.7,–,11.2,< 10
Cc1ccoc1C(=O)Nc1ccc(CC(=O)O)cc1,–,> 99,> 99,0.796 µM,0.895,0.698,0.374 µM,0.366,0.382
O=C(O)c1cccc(CSc2nnc(COc3ccccc3)o2)c1,–,> 99,> 99,–,> 99,18.8,6.36 µM,6.48,6.23
N#Cc1c(NC(=O)CSc2ncn[nH]2)sc2c1CCCCC2,–,> 99,1.47,< 0.19 µM,< 0.19,< 10,< 0.3 µM,< 0.3,< 0.3
O=C(O)COc1ccc2oc3ccccc3c2c1,43.4 µM,27.8,59,inactive,75.3,20.5,inactive,13.1,12.7
Cc1nc2cc(-c3ccccc3)nn2c(C)c1CCC(=O)N1CCC2(CC1)OCCO2,53 µM,53.9,52,2.49 µM,2.63,2.35,0.832 µM,0.742,0.921
O=C(Nc1sc2c(c1C(=O)O)CCC2)c1ccccc1Cl,–,85.7,> 99,–,> 99,50.5,> 99 µM (inactive),> 99,> 99
COc1cccc(/C=N/Nc2ncccc2[N+](=O)[O-])c1OC,inactive,20.3,20.1,21.8 µM,22,21.6,–,8.21,< 30
